{"source": "patent US20130189690A1", "about": "“SCN5A Splice Variants for Use in Methods Relating to Sudden Cardiac Death and Need for Implanted Cardiac Defibrillators” (The United States Government as represented by the …, priority 2011, published 2013)", "key": {"H9c2 cardiomyocytes": {"test_system": "H9c2 cardiomyocytes", "test": "Trypan-blue exclusion cell viability assay", "format": "cell-based", "experimental": "To determine appropriate concentrations of these agents in future experiments, rat H9c2 cardiomyocytes were treated with escalating concentrations of AngII and H2O2, and the dose-dependent cell viability was determined. H9c2 cardiomyocytes were tolerant of a wide range of AngII concentrations from 1-500 nM in serum free medium (FIG. 14A). On the other hand, higher doses of H2O2 induced cell death starting at concentrations of 50 μM (FIG. 14B). […] Exposures of 48 h were used to allow sufficient time for transcriptional effects on the Na^+ current.\nThe rat embryonic cardiomyocyte cell line, H9c2 (ATCC cat #CRL-1446), or acutely isolated neonatal rat heart cardiomyocytes were used. Rat neonatal ventricular cells were isolated from 3-day-old Sprague-Dawley rats (Charles River Laboratories Wilmington, Mass.) using a kit and following the manufacturer's instructions (Worthington Biochemical Corp. Lakewood, N.J.). Cells cultured in Dulbecco's modified Eagle's medium (DMEM; ATCC, Manassas, Va.) with 10% fetal calf serum (ATCC) under standard tissue culture conditions at 37° C. to 70-80% confluence were exposed to AngII (Sigma, St. Louis, Mo.) or H2O2 (Sigma) in serum free culture medium (SFM) for a total of 48 h in triplicate in 24 well plates. Experiments were repeated three times. […]"}, "[1]": {"test_system": "cardiac sodium channel (scn5a) mRNA", "test": "scn5a mRNA abundance by quantitative real-time RT-PCR in neonatal cardiomyocytes", "format": "cell-based, rat", "description": "(§1) The rat embryonic cardiomyocyte cell line, H9c2 (ATCC cat #CRL-1446), or acutely isolated neonatal rat heart cardiomyocytes were used. Rat neonatal ventricular cells were isolated from 3-day-old Sprague-Dawley rats (Charles River Laboratories Wilmington, Mass.) using a kit and following the manufacturer's instructions (Worthington Biochemical Corp. Lakewood, N.J.). Cells cultured in Dulbecco's modified Eagle's medium (DMEM; ATCC, Manassas, Va.) with 10% fetal calf serum (ATCC) under standard tissue culture conditions at 37° C. to 70-80% confluence were exposed to AngII (Sigma, St. Louis, Mo.) or H2O2 (Sigma) in serum free culture medium (SFM) for a total of 48 h in triplicate in 24 well plates. Experiments were repeated three times. After dissociation with 0.125% trypsin-EDTA, 20 μL of 0.4% Trypan-blue (Sigma, St. Louis, Mo.) was added to each well, and a Trypan-blue exclusion viability assay was performed. The use of rats conforms with the Guide for the Care and Use of Laboratory Animals published by the US National Institutes of Health (NIH Publication No. 85-23, revised 1996).\n(§2) To determine the abundance of cardiac sodium channel (scn5a) mRNA under the various conditions, quantitative real-time RT-PCR was used. […] PCR products were analyzed by relative standard curve methods β-Actin was used as a reference when making quantitative comparison."}, "[2]": {"test_system": "cardiac sodium channel (scn5a) mRNA", "test": "scn5a mRNA abundance by quantitative real-time RT-PCR in H9c2 cells", "format": "cell-based, rat", "description": "as §1, §2"}, "[3]": {"test_system": "NF-κB binding to the scn5a promoter", "test": "Electrophoretic mobility shift assay with H9c2 nuclear extracts", "format": "cell-based, rat", "details": "for effect of NF-κB inhibitor on NF-κB binding to scn5a promoter probe: CAPE 10 μM, H9c2, H2O2", "description": "Approximately 5×10^6 cells were scraped for nuclear protein extraction by nuclear extract kit (Activemotif, Carlsbad, Calif.). A double-stranded oligonucleotide containing the consensus-binding sequence (bold) for […] ID NO. 657)) and NF-κB mutant sequence ([NT] ID NO. 658)) from scn5a promoter were used as probes to assay for binding activity of the nuclear extracts. Protein-DNA complexes were detected using biotin end-labeled double-stranded DNA probes prepared by annealing complementary oligonucleotides. Oligonucleotides were labeled in a reaction using terminal deoxynucleotide transferase and biotin-N4-CTP (Pierce, Rockford, Ill.) following the biotin 3' end DNA labeling kit manual. The binding reaction was performed using the LightShift kit (Pierce). […] Following electrophoresis, the DNA-protein complexes were transferred onto nylon membranes and detected using chemiluminescence. TNF-α activated H9c2 cell nuclear extract (5 μg) was used as positive control. The reaction products were separated on a 6% retardation gel."}, "[4]": {"test_system": "NF-κB subunits p50 and p65 on the scn5a promoter", "test": "Chromatin immunoprecipitation (ChIP) assay in H9c2 cells", "format": "cell-based, rat", "experimental": "Formaldehyde cross-linking and chromatin immunoprecipitation was performed as described in manufactory's manual (ChIP-IT™ kit, Activemotif). Briefly, proteins were crosslinked with chromatin using 1% formaldehyde in H9c2 cells with or without treatment. The cells were subsequently sonicated in lysis buffer, and an aliquot of the lysate was used in a PCR reaction. The remaining lysate was cleared with protein G beads. One half of the cleared lysate was incubated with p50 or p65 antibody, while the other half was used as a negative control without the antibody. After reversing the cross-linking, the immuno-complex was digested with proteinase K, and the DNA was purified. DNA was analyzed by PCR with the PicoMax Polymerase (Stratagene, La Jolla, Calif.) and primers specific to the APS3 promoter region."}, "scn5a promoter": {"test_system": "scn5a promoter", "test": "scn5a promoter-reporter (dual luciferase) assay in H9c2 cells", "format": "cell-based, rat", "experimental": "The scn5a promoter region has previously been defined (Shang, L. L. & Dudley, S. C., Jr. (2005) J. Biol. Chem. 280, 933-940). For these experiments, a new promoter construct that contained the NF-κB consensus binding site was used to test the effect of treatments on scn5a transcription. This construct, pGL3-APS3, consisted of a 937 bp fragment starting from exon 1C to +32 base pairs relative to the start codon located on exon 2 of mouse scn5a gene.\nH9c2 cardiomyocytes were plated in each well of 24-well plates at a density of 2.5×10^4 cells in a final volume of 1 mL of culture medium, allowed to attach overnight, and expand to 70%-80% confluence. Transfection of 0.3 μg of the promoter-reporter construct and 0.013 μg of a plasmid containing the herpes simplex virus thymidine kinase (HSV-TK) promoter driving expression of a synthetic Renilla luciferase (phRL-TK; Promega, Madison, […].) was carried out with 0.9 μL of Fugene6 chemical transfection reagents (Roche, Indianapolis, Ind.) following the manufacturer's instructions. […] Light emission was quantified in a Veritas microplate luminometer using Veritas-version 1.4.0 software (Tuener Biosystems, Sunnyvale, Calif.). […] Four separate transfection sessions were analyzed, and at each session, transfections were performed in triplicate. Three dual luciferase readings were taken for each transfection experiment. […]"}, "[5]": {"test_system": "cardiac Na+ channel current", "test": "Whole-cell patch-clamp Na+ current in H9c2 cells", "format": "cell-based, rat", "details": "H9c2, 20 μM H2O2 for 48 h, voltage step to −10 mV", "experimental": "Three hours prior to the start of the patch-clamp experiments, H9c2 cells were trypsinized and plated on treated plastic coverslips. H9c2 cells were treated with or without H2O2 as indicated. Glass pipettes were pulled on a Sutter Model P-97 horizontal puller to a resistance of 0.5 to 1.5 MΩ. The glass pipettes were filled with a solution of (in mM) CsCl 60, Cesium Aspartate 80, EGTA sodium 11, HEPES 10, Na2ATP 5 and pH 7.2 with CsOH. The bath solution consisted of (in mM) Na 30, […] chloride 100, CsCl 5, CaCl2 2, MgCl2 1.2, HEPES 10, Glucose 5 and pH 7.4 with NaOH. Once a seal was established, a small amount of suction was applied to obtain the whole cell configuration. From a holding potential of −100 mV, peak currents obtained at −10 mV were used for comparison. Cells were tested at 25° C. Data were sampled at 10 kHz and later filtered at 5 kHz for analysis. Currents were recorded and analyzed with an Axopatch 200B amplifier, Axon Digidata 1230A A/D converter and pClamp software (Molecular Devices Corporation, Sunnyvale, Calif.)."}}}
{"compound": "OO", "note": "[H2O2]", "values": [{"measurement": "cell death at 20 μM H2O2", "setting": "H9c2 cardiomyocytes; 20 μM H2O2, 48 h", "result": "no statistically significant increase in cell death"}, {"measurement": "H2O2 concentration at which cell death starts", "setting": "H9c2 cardiomyocytes; 48 h", "result": "≥ 50", "unit": "µM"}, {"measurement": "reduction in Na+ channel mRNA", "setting": "[1]; isolated neonatal rat myocytes, 40 nM H2O2, 48 h", "result": 45.4, "unit": "%"}, {"measurement": "reduction in Na+ channel mRNA", "setting": "[2]; H9c2 cells, 20 μmol/L H2O2, 48 h", "result": 46.9, "unit": "%"}, {"measurement": "NF-κB binding activity to scn5a promoter probe", "setting": "[3]; H9c2 nuclear extracts, 48 h AngII or H2O2", "result": "increased"}, {"measurement": "NF-κB subunit binding on the cardiac Na+ channel promoter", "setting": "[4]; H9c2, AngII or H2O2 treatment", "result": "formation of the complete p50-p65 NF-κB heterodimer"}, {"measurement": "change in promoter activity of construct with mutated NF-κB binding site", "setting": "scn5a promoter; APS3-NF-κBm, H9c2, AngII or H2O2", "result": "no significant change in activity"}, {"measurement": "depression of scn5a Na+ channel promoter activity", "setting": "scn5a promoter; APS3 construct with intact NF-κB site, H9c2, 20 μM H2O2, 48 h", "result": 42.3, "unit": "%"}, {"measurement": "decrease in peak Na+ current", "setting": "[5]", "result": 46, "unit": "%"}]}
{"compound": "O=C(/C=C/c1ccc(O)c(O)c1)OCCc1ccccc1", "note": "[CAPE, caffeic acid phenethyl ester]", "values": [{"measurement": "effect of NF-κB inhibitor on NF-κB binding to scn5a promoter probe", "setting": "[3]", "result": "prevented binding in response to H2O2"}, {"measurement": "effect of NF-κB inhibitor on NF-κB binding to scn5a promoter probe", "setting": "[3]; listed as caffeic acid phenethyl ester", "result": "blocked"}, {"measurement": "effect of NF-κB inhibitor on binding of p50 and p65 to the channel promoter", "setting": "[4]; H9c2, CAPE", "result": "could prevent biding of both subunits"}]}
{"compound": "catalase", "values": [{"measurement": "effect of catalase on AngII-mediated downregulation of Na+ channel mRNA", "setting": "[1]; neonatal cardiomyocytes, AngII 2 nM and PEG-catalase 250 U/mL, 48 h", "result": "prevented"}, {"measurement": "effect of catalase on AngII-mediated downregulation of Na+ channel mRNA", "setting": "[2]; H9c2, AngII 100 nM and PEG-catalase 250 U/mL, 48 h", "result": "prevented"}]}
